Consider one molecule from patent US7419780B2, “Methods and assays for screening protein targets” (The Trustees of Columbia University in the City of New York, priority 2000, dated 2008).

Molecules are shown by their SMILES.

What all share (format): cell-based, S. cerevisiae
What all share (conditions): 1 uM small molecule, difference to activity without small molecule, average of two trials

In one assay the target is T1, LexA mDHFR / B42 rGR2 (UniProt P00375+P06536, C656G/F620S).
T1 construct: rat Glucocorticoid Receptor (aa 524-795) with point mutations; expressed in transfected cells; host or cells: S. cerevisiae FY250
T1 sequence (P00375 1-187): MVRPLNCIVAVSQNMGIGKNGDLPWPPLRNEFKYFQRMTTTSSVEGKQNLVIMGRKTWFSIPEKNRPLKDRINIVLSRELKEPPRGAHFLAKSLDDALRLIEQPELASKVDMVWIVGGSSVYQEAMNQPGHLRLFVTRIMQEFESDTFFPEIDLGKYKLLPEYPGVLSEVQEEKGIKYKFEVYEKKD
T1 sequence (P06536 524-795 F620S/C656G limits assumed): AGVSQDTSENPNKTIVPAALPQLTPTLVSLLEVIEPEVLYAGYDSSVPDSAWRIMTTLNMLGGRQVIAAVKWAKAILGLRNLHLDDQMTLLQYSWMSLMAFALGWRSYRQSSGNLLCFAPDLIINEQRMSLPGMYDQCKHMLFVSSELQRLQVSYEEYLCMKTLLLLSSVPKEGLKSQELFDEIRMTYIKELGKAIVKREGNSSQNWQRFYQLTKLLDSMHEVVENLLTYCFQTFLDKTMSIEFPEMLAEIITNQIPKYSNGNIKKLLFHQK
As to the kind of experiment: β-galactosidase activity assay, strain V495Y. An excerpt: (§1) Table III explains the components of each strain. Each strain was constructed from the parent yeast strain FY250 and also contains the pMW106 plasmid, which has the LacZ reporter gene that is turned on only in when the LexA DNA binding domain and the B42 activation are brought in tot he vicinity of each other. We use several different strains because we use DHFR from two different species, mDHFR is from murine, while eDHFR is from E. coli. We are asl oable to switch the small moleculebinding domains. For example, the strain containing LexA-eDHFR with B42-rGH2 is a different strain and behaves differently from the strain containing LexA-rGR2 with B42-eDHFR. We also put in short 6 amino acid linkers between the two domains of our protein chimeras and thus these are different strain as well.
(§2) The results in Table IV are averages of two separate trials. Each strain was examined with small molecules and without small molecules. The absolute activity is given as the β-galactisidase activity […]. The average β-galactosidse activity for a strain without small molecule (i.e. the negative control) was about 100 β-galactosidase units.

For assay [1], the target named is T2, LexA rGR2 / B42 (GSG)2mDHFR (UniProt P00375+P06536, C656G/F620S).
T2 construct: expressed in transfected cells; host or cells: S. cerevisiae FY250 with pMW106 lacZ reporter
T2 sequence (P06536 524-795 F620S/C656G limits assumed): T1 sequence (P06536 524-795 F620S/C656G limits assumed)
T2 sequence (P00375 1-187): T1 sequence (P00375 1-187)
The experiment in a line: β-galactosidase activity assay, strain V511Y.
From the text: as §1, §2

The target of assay [2] is T3, LexA mDHFR / B42 gly6rGR2 (UniProt P00375+P06536, C656G/F620S).
T3 construct: rat Glucocorticoid Receptor (aa 524-795) with point mutations; expressed in transfected cells; host or cells: S. cerevisiae FY250
T3 sequence (P00375 1-187): T1 sequence (P00375 1-187)
T3 sequence (P06536 524-795 F620S/C656G limits assumed): T1 sequence (P06536 524-795 F620S/C656G limits assumed)
The experiment in a line: β-galactosidase activity assay, strain V496Y.
From the text: as §1, §2

In assay [3] the target is T4, LexA (GSG)2eDHFR / B42 rGR2 (UniProt P06536+P0ABQ4, C656G/F620S).
T4 construct: rat Glucocorticoid Receptor (aa 524-795) with point mutations; expressed in transfected cells; host or cells: S. cerevisiae FY250
T4 sequence (P0ABQ4 1-159): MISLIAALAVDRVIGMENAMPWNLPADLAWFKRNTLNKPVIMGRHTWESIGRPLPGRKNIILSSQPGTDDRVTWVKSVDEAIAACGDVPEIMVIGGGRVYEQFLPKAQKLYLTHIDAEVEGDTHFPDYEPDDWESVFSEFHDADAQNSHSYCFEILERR
T4 sequence (P06536 524-795 F620S/C656G limits assumed): T1 sequence (P06536 524-795 F620S/C656G limits assumed)
As to the kind of experiment: β-galactosidase activity assay, strain V498Y.
From the text: as §1, §2

The target of assay [4] is T5, LexA (GSG)2rGR2 / B42 (GSG)2mDHFR (UniProt P00375+P06536, C656G/F620S).
T5 construct: rat Glucocorticoid Receptor (aa 524-795) with point mutations; expressed in transfected cells; host or cells: S. cerevisiae FY250
T5 sequence (P06536 524-795 F620S/C656G limits assumed): T1 sequence (P06536 524-795 F620S/C656G limits assumed)
T5 sequence (P00375 1-187): T1 sequence (P00375 1-187)
As to the kind of experiment: β-galactosidase activity assay, strain V512Y.
From the text: as §1, §2

Assay [5] has as its target T6, LexA (GSG)2rGR2 / B42 eDHFR (UniProt P06536+P0ABQ4, C656G/F620S).
T6 construct: expressed in transfected cells; host or cells: S. cerevisiae FY250 with pMW106 lacZ reporter
T6 sequence (P06536 524-795 F620S/C656G limits assumed): T1 sequence (P06536 524-795 F620S/C656G limits assumed)
T6 sequence (P0ABQ4 1-159): T4 sequence (P0ABQ4 1-159)
The experiment in a line: β-galactosidase activity assay, strain V506Y.
From the text: as §1, §2

Another assay has as its target T7, LexA rGR2 / B42 mDHFR (UniProt P00375+P06536, C656G/F620S).
T7 construct: rat Glucocorticoid Receptor (aa 524-795) with point mutations; expressed in transfected cells; host or cells: S. cerevisiae FY250
T7 sequence (P06536 524-795 F620S/C656G limits assumed): T1 sequence (P06536 524-795 F620S/C656G limits assumed)
T7 sequence (P00375 1-187): T1 sequence (P00375 1-187)
As to the kind of experiment: β-galactosidase activity assay, strain V507Y.
From the text: as §1, §2

A further assay addresses T8, LexA rGR2 / B42 eDHFR (UniProt P06536+P0ABQ4, C656G/F620S).
T8 construct: rat Glucocorticoid Receptor (aa 524-795) with point mutations; expressed in transfected cells; host or cells: S. cerevisiae FY250
T8 sequence (P06536 524-795 F620S/C656G limits assumed): T1 sequence (P06536 524-795 F620S/C656G limits assumed)
T8 sequence (P0ABQ4 1-159): T4 sequence (P0ABQ4 1-159)
The experiment in a line: β-galactosidase activity assay, strain V505Y.
From the text: as §1, §2

Assay [6] concerns the target T9, LexA (GSG)2mDHFR / B42 rGR2 (UniProt P00375+P06536, C656G/F620S).
T9 construct: rat Glucocorticoid Receptor (aa 524-795) with point mutations; expressed in transfected cells; host or cells: S. cerevisiae FY250
T9 sequence (P00375 1-187): T1 sequence (P00375 1-187)
T9 sequence (P06536 524-795 F620S/C656G limits assumed): T1 sequence (P06536 524-795 F620S/C656G limits assumed)
As to the kind of experiment: β-galactosidase activity assay, strain V502Y.
From the text: as §1, §2

Assay [7] deals with T10, LexA (GSG)2eDHFR / B42 gly6rGR2 (UniProt P06536+P0ABQ4, C656G/F620S).
T10 construct: rat Glucocorticoid Receptor (aa 524-795) with point mutations; expressed in transfected cells; host or cells: S. cerevisiae FY250
T10 sequence (P0ABQ4 1-159): T4 sequence (P0ABQ4 1-159)
T10 sequence (P06536 524-795 F620S/C656G limits assumed): T1 sequence (P06536 524-795 F620S/C656G limits assumed)
As to the kind of experiment: β-galactosidase activity assay, strain V499Y.
From the text: as §1, §2

As for `C[C@@H]1C[C@H]2C3CCC4=CC(=O)C=C[C@]4(C)[C@@]3(F)[C@@H](O)C[C@]2(C)[C@@]1(O)C(=O)NCCSCc1cccc(CSCC[C@H](NC(=O)c2ccc(N(C)Cc3cnc4nc(N)nc(N)c4n3)cc2)C(=O)O)c1` (stereo partly shown) [DM1], the B-gal activity is reported as 15 β-galactosidase units on LexA mDHFR / B42 rGR2; −113 β-galactosidase units in assay [1]; −30 β-galactosidase units in assay [2]; 4735 β-galactosidase units in [3]; −1 β-galactosidase units in assay [4]; 519 β-galactosidase units in assay [5]. Also, the B-gal activity is reported as −7 β-galactosidase units on LexA rGR2 / B42 mDHFR, 557 β-galactosidase units at LexA rGR2 / B42 eDHFR, 21 β-galactosidase units in assay [6] and 4368 β-galactosidase units in assay [7].
